Results taken from a melting point compilation (Tetko et al.; mined from patent text by program, amines drawn as free bases though some values may be those of a salt).

SMILES	melting point
O=C(O)CCc1c(-c2ccc(F)cc2)[nH]c2ccc(Cl)cc12	153 to 154 °C
CC(=O)N1CC(=O)c2ccccc21	138 °C
CCC(=O)C1=CCC(c2c(C)c(C)c3c(c2Cl)CC(C)(CC)C3)CC1=O (stereo unspecified)	55 to 57 °C
CCOC(=O)c1cnc(C)nc1-c1ccc(OC)c(OC)c1	98 to 100 °C
CC(=O)Nc1nnc(SCC(O)(Cn2cncn2)c2ccc(Cl)cc2Cl)s1 (stereo unspecified)	132 °C
O=C(Nc1c(Cl)cncc1Cl)c1cc(OC2CCCC2)c(OC(F)F)cn1	131 to 132 °C
COc1cc2c(cc1F)CC(C)C2=O (stereo unspecified)	76 to 78 °C
CC(C)NC(=O)CS(=O)CC(=O)c1ccc(-c2ccccc2)cc1 (stereo unspecified)	138 °C
Cc1cc(CSc2cccc(OCc3cccc4ccccc34)c2)oc(=O)c1	139 °C
O=C(Nc1ccc(Br)c(Br)c1[N+](=O)[O-])C(F)(F)F	107 to 109 °C
CN1C(=O)C(NC(=O)CCc2ccc(Cl)cc2Cl)CC(=O)c2ccccc21 (stereo unspecified)	182 to 184 °C
O=C(c1ccc(Cl)cc1)c1c(N2C(=O)c3ccccc3C2=O)sc(Br)c1CO	170 to 172 °C
O=[N+]([O-])C=C(NCCSCc1ncccc1Br)NCCSCc1ncccc1Br	122 to 123 °C
CSC(=CC(=O)c1ccccc1C)SC	96.2 °C
O=c1c(CCl)csc2ccc3ccccc3c12	151 to 153 °C
O=C(NCc1ccc2c(c1)-c1[nH]nc(-c3ccsc3)c1C2)c1ccncc1	278 to 281 °C
CCCN(Cc1ccc(-c2ccccc2-c2nc(=O)o[nH]2)cc1)c1nc(C)ncc1C(=O)O	182 to 186 °C
C#Cc1cccc(-n2ncc3c(NCc4ccc5c(c4)OCCO5)ncnc32)c1	161 °C
CC1(C)CC(O)(C(F)(F)F)C(Nc2cccc3[nH]ncc23)c2ccc(Cl)c(O)c21 (stereo unspecified)	112 to 120 °C
CC(C)(Oc1ccc(C2CCOCC2)cc1)C(=O)O	112 °C
CSc1cccc(-c2coc3ccc(-c4nnc(C)o4)cc23)c1	99 to 100 °C
COc1ccc2c(c1)c(Cc1nc3c(F)c(F)cc(F)c3s1)cn2CC(=O)O	165 to 167 °C
O=C1CC(c2ccc(Cl)cc2)CO1 (stereo unspecified)	52 to 54 °C
COc1ccc(CN(C)CCNc2ccc(NC(=O)c3cccc4c(=O)c5cccc(OC)c5[nH]c34)cc2)cc1OC	196 °C

SMILES	melting point
Cc1nc(C(CC(C)C)Nc2c(C#N)cnn3cccc23)sc1C (stereo unspecified)	138 °C
CS(=O)(=O)N(C(=O)OCc1ccccc1)c1cc(OC[C@@H]2CO2)ccc1OCc1ccccc1	78 to 80 °C
CCOCc1nc2c(N)nc3cc(OCc4ccc(F)cc4)ccc3c2n1CC(C)(C)NS(C)(=O)=O	251 to 253 °C
CCC(Oc1cncc(Cl)c1)C(=O)O (stereo unspecified)	98 to 101 °C
CNCc1cn(S(=O)(=O)c2ccccc2)c(-c2cccnc2F)c1F	128 °C
COc1ccc(/C=C/C(=O)N[C@@H]2N=C(c3ccccc3)c3ccccc3N(C)C2=O)cc1	129 to 133 °C
CCn1ncc2c(ON=C(C)C)c(C(=O)c3ccc(Cl)cc3)cnc21	112 to 113 °C
Cc1cc(Nc2ccc(C(C)(C)C)cc2)c2[nH]ncc2n1	258 to 262 °C
CCOC(=O)c1oc2c(C(=O)c3ccccc3)ccc(OC)c2c1C	137 to 139 °C
COc1cc2ccc(C(=O)CCl)cc2cc1OC	137 to 140 °C
O=c1[nH]nc(-c2ccc(N=Cc3ccc(O)cc3)cc2)c(O)c1O	233 °C
Cc1cccc(-c2[nH]c(C(C)C)nc2-c2cccc(-c3cccc(NS(C)(=O)=O)c3)c2)n1	108 to 112 °C
CCC(C)(C)Nc1c(NCc2ccccn2)c(=O)c1=O	192 °C
O=c1ccn(CCO)c(C(O)c2cccc(F)c2)c1OCc1ccccc1 (stereo unspecified)	194 to 196 °C
CSc1ccc2c(SCc3ccc(N(C)C)cc3)ccnc2c1	168 to 170 °C
CC(C)N=C(NC#N)NCCN1CCC(C(=O)c2ccc(F)cc2)CC1	158 to 160 °C
CCOC(=O)c1cn2c3c(c(F)c(F)cc3c1=O)OCC2COC(=O)c1cc([N+](=O)[O-])cc([N+](=O)[O-])c1 (stereo unspecified)	240 to 242 °C
Cc1nc(NC(=N)N)sc1C(=O)Nc1cccc(OCC(=O)O)c1	284 °C
CN1CCN(c2cc(Cl)cc3c2c(=O)n(Cc2cccc(F)c2)c(=O)n3Cc2ccccc2)CC1	148 to 150 °C
Cc1ccc(S(=O)(=O)N(CC(=O)OCc2ccccc2)c2ccc(Cl)cc2C(=O)c2ccccc2Cl)cc1	99 to 101 °C
Cc1cc2oc(NC(=O)Nc3c(C)cccc3C)c(-c3ccccc3Cl)c2cc1C	252 to 254 °C
O=C(O)C1CCC(=O)N1c1cccc(O)c1 (stereo unspecified)	183 to 185 °C
O=C(CN1CCOCC1)Nc1ccn(-c2ccc(Cl)c(Cl)c2)n1	125 to 127 °C
CC1(C)CCC2=C(C1=O)C(c1ccc(F)c(Br)c1)C1=C(COCC1=O)N2 (stereo unspecified)	> 260 °C

SMILES	melting point
CNc1nc(-c2cccc(-c3ccc(SC)cc3)c2)c2cc(OC)c(OC)cc2n1	140 to 142 °C
C=CCON(CCCCCCCCCCCCCCCCCC)CCCCCCCCCCCCCCCCCC	60 to 62 °C
O=c1[nH]c2ccc3c(c2[nH]1)OC(CNCCCCc1ccccc1)CO3 (stereo unspecified)	224 to 226 °C
CCn1c(Cl)nc2ccccc21	48 to 50 °C
NC(=O)c1ccc2c(c1)C(=O)c1cc(F)ccc1C2=O	322 to 323 °C
C=CCONC(CCC)=C1C(=O)CC(C2CCOCC2)CC1=O (stereo unspecified)	55 to 56 °C
CCCCCCCCc1ccc(N(c2ccc(CCCCCCCC)cc2)C2(c3ccc(N(C)C)cc3)OC(=O)c3cc(N(C)C)ccc32)cc1 (stereo unspecified)	208 to 210 °C
COc1ccc(CSc2nnc(-c3ccc4occc4c3)o2)cc1	124 to 125 °C
O=C(O)Cc1ccc(C2CCCCC2)c2ccccc12	161 to 163 °C
Cc1ccc(C2(C#N)C3CC4CC(C3)CC2C4)cc1 (stereo unspecified)	99 to 100 °C
CC(=O)OCC1OC(n2c(=O)sc3c(Cl)nc(N)nc32)C(OC(C)=O)C1OC(C)=O (stereo unspecified)	101 to 103 °C
Cc1ccc(C(=O)C(=O)c2ccc(Br)cc2)cc1	132 to 135 °C
CCCCC1(N(C)C)CCC(c2[nH]c3ccccc3c2CC2CCCCC2)CC1 (stereo unspecified)	155 to 165 °C
Nc1cc(Cl)c(N2CCCCC2)cc1-c1noc(=O)[nH]1	186 to 189 °C
CCOC(=O)C(CCCCCCCCCCCCC(C(=O)O)C1CC1)C1CC1 (stereo unspecified)	36.9 to 38.2 °C
Cc1oc(C2CC2)nc1COc1ccc(CC(OC(C)C)C(=O)O)c2sccc12 (stereo unspecified)	71 to 72 °C
Cn1ncc(/C=C/C(=O)Nc2ccc(OCc3nnco3)cc2)c1-c1ccc(F)cc1	154 to 155 °C
O=[N+]([O-])c1ccc(F)cc1CBr	38 to 41 °C
CS(=O)(=O)c1ccc(C(=O)c2ccc(F)cc2)cc1	136 °C
CC(=O)Oc1ccc(-c2nc3n(c2-c2ccc(OC(C)=O)cc2)CCS3)cc1	172 to 173 °C
O=C(NN=Cc1cccnc1)NN=Cc1cccnc1	202 to 204 °C
COc1ccc(-c2nn(C)c(=O)c3ccccc23)cc1Cl	195 °C
CCCc1c(OCc2ccccc2)ccc2c1OC(C(=O)OC)(C1CC1C(=O)OC)CC2 (stereo unspecified)	82 to 84 °C
